{"source": "patent US20140179681A1", "about": "“METHODS AND COMPOSITIONS OF TARGETED DRUG DEVELOPMENT” (priority 2010, published 2014)", "key": {"[1]": {"tested_on": "EGF receptor-mediated cell proliferation", "assay": "Combination studies (median effect analysis: IC50, CI, DRI) in cell proliferation assay (MTT assay)", "details": "for CI @ ED90: Combination Index at 90% inhibition; for DRI @ ED97: Dose Reduction Index", "source_text": "Studies were initiated to evaluate the ability of various compounds disclosed herein to synergize with several compounds known to inhibit the function of the EGF receptor in a cell proliferation assay (MTT assay)."}, "EGF binding site": {"target": "T1, EGF binding site (Rattus norvegicus, UniProt G3V6K6)", "T1 construct": "Receptor source was rat liver membranes; tissue NovaScreen BioSciences; host or cells: rat liver membranes", "T1 sequence (G3V6K6 25-1209)": "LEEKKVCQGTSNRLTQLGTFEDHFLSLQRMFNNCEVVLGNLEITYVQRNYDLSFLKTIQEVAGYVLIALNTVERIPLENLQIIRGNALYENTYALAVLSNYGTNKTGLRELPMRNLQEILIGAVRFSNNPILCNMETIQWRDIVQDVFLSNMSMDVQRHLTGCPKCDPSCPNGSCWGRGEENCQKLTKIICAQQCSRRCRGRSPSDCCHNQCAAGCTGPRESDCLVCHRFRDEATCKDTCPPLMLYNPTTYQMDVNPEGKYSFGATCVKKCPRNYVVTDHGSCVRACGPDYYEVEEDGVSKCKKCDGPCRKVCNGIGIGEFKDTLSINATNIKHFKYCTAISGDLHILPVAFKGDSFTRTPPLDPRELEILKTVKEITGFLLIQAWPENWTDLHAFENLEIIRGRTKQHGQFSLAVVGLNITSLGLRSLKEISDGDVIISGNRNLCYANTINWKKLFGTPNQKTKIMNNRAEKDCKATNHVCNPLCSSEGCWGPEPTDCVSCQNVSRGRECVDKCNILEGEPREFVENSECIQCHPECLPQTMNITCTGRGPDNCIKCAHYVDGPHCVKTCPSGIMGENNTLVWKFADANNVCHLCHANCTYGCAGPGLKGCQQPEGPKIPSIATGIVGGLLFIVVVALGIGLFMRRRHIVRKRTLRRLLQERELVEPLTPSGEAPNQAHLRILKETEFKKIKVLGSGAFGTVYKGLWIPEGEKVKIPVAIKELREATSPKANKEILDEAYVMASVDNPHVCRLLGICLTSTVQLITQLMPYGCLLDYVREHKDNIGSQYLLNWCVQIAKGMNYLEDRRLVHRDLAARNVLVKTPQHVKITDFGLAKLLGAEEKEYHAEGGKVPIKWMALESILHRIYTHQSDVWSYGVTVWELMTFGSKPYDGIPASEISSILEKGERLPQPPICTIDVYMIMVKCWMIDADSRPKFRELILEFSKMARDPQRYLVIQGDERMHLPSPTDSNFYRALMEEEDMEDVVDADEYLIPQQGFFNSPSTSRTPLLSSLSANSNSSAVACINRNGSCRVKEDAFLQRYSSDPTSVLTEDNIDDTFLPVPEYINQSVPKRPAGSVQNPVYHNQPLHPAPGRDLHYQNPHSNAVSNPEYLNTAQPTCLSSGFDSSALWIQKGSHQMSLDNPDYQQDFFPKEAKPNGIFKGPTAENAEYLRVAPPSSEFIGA", "assay": "Inhibition of [125I]EGF binding (EGF inhibitor assay, NovaScreen)", "details": "determined at 25 μM; rat liver membranes; result in words", "method": "Identified compounds, representing various pharmacophore models, were tested for ability to inhibit EGFR at 25 μM.\nAD4-compounds were identified using pharmacophore models (see Example 3, Example 4) and then were docked with the binding site of EGFR (SEQ ID NO: 1) that is recognized by defined CDRs of cetuximab. The inhibition of epidermal growth factor binding by AD4-compounds was then determined (NovaScreen BioSciences, Hanover, Md.). Inhibition of EGF binding was determined at 25 μM concentration.\nReceptor source was rat liver membranes. The radioligand was [^125I]EGF ([…]) at a final ligand concentration of 0.36 nM. A non-specific determinant was used as EGF—[100 nM]. The reference compound and positive control was EGF. Reactions were carried out in 10 mM HEPES (pH 7.4) containing 0.1% BSA at 25° C. for 60 minutes. The reaction was terminated by rapid vacuum filtration onto glass fiber filters. Radioactivity trapped onto the filters was determined and compared to control values to ascertain any interactions of test compounds with the EGF binding site. The EGF inhibitor assays were modified from, for example, Mukku (1984) J. Biol. Chem. 259, 6543-6546; Duh et al. (1990) World J. Surgery 14, 410-418; Lokeshwar et al. (1989) J. Biol. Chem. 264(32), 19318-19326."}, "EGFR [2]": {"target": "T2, EGFR (Homo sapiens, UniProt P00533)", "T2 construct": "A431 cells (ATCC # CRL-1555) were grown in Dulbecco's Modified Eagle Medium; host or cells: A431", "T2 sequence (P00533 25-1210)": "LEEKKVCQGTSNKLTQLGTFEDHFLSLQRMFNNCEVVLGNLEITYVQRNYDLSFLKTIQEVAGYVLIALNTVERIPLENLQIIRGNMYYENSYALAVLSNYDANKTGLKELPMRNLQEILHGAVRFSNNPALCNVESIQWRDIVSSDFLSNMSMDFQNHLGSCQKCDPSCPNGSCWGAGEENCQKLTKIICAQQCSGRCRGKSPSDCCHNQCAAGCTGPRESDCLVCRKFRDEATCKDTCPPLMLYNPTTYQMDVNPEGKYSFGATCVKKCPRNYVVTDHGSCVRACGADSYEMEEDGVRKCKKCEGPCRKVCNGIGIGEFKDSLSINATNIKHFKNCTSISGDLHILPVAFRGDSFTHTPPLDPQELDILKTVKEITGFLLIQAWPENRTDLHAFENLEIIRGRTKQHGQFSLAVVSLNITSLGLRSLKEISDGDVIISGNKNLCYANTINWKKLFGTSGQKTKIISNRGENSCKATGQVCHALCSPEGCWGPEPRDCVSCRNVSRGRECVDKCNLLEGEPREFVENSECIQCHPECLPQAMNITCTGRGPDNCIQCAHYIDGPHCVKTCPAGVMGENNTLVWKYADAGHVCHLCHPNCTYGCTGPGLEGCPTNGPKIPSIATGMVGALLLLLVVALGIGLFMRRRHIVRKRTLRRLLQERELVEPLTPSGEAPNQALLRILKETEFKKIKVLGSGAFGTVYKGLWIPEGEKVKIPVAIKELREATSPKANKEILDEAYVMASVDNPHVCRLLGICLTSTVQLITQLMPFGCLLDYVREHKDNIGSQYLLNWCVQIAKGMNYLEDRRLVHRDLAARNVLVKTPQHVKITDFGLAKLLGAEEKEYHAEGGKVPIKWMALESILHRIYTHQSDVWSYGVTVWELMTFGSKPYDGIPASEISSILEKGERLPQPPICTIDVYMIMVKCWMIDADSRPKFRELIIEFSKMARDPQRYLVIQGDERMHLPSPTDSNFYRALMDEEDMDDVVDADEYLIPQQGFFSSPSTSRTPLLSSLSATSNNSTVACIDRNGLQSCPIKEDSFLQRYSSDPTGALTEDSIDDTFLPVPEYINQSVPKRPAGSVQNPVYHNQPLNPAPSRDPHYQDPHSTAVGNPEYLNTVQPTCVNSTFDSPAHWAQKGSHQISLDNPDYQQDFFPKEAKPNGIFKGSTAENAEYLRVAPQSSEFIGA", "assay": "Titration of known EGFR inhibitors in absence or presence of a fixed concentration of AD4 compound (% inhibition of EGFR)", "assay_type": "cell-based", "details": "Tykerb alone or in combination with the compound; result in words"}, "EGFR [3]": {"target": "T2, EGFR", "assay": "EGFR in-cell Western (ICW) screening protocol (EGFR inhibition assay)", "assay_type": "cell-based", "set-up": "ICW 1 / ICW 2 / ICW Avg: unit not given here", "details": "for ICW assay: Table 10", "outline": "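Serum-starved A431 cells (2 h) were pretreated with compound for 4 h at 37° C, then stimulated with EGF (10 ng/ml final, or 6.6 or 12.5 ng/ml in some runs) for 10 min. After formaldehyde fixation, phospho-EGFR (Tyr1173, or Tyr1045 in some runs) and total EGFR were detected by in-cell Western immunostaining.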"}, "[4]": {"tested_on": "epithelial carcinoma A431 cell line", "assay": "MTT Cell Proliferation Assay, A431 cells", "assay_type": "cell-based", "details": "for IC50: Homo sapiens", "outline": "(§1)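 Viability was measured by mitochondrial MTT reduction after cells were exposed to compound for 3 days in reduced-serum medium. Inhibition was calculated per plate against 0.5% DMSO controls.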"}, "MDBK line": {"tested_on": "MDBK line", "assay": "MTT Cell Proliferation Assay, MDBK cells", "assay_type": "cell-based, bovine", "details": "Bos taurus, MDBK", "outline": "as §1"}, "[5]": {"details": "effect of the test compound on Iressa"}, "[6]": {"details": "effect of the test compound on Tykerb"}, "[7]": {"details": "% Inhibition of EGF dependent EGFR phosphorylation in A431 cells, compound 125 μM in assay"}, "[8]": {"details": "A-431, 72 h, Table 10, first of x/y(ratio): A431, three day treatment, unit not printed (doses in μM), read-out: MTT assay (first value)"}, "[9]": {"details": "72 h, Table 10, second of x/y(ratio): MDBK, three day treatment, unit not printed (doses in μM), read-out: MTT assay (second value)"}}, "note": "Values joined by “and” are separate entries in the source; they are usually repeats but may differ in a detail not shown here. Equal values may be shown once. “Also recorded” adds a separate entry of the source. Read-outs that look alike come from different tables or passages of the source."}
{"smiles": "Cc1cccc(NC(c2ccc(C(F)(F)F)cc2)c2ccc3cccnc3c2O)n1", "note": "(stereo not shown) [AD4-10628]", "values": [{"measurement": "CI @ ED90", "setting": "[1]; combination with Iressa", "value": 0.91}, {"measurement": "CI @ ED90", "setting": "[1]; combination with Tykerb", "value": 0.55}, {"measurement": "DRI @ ED97", "setting": "[1]; [5]", "value": 105}, {"measurement": "DRI @ ED97", "setting": "[1]; [6]", "value": 126}]}
{"smiles": "O=C(NC(=S)Nc1ccc(S(=O)(=O)NCCc2ccccc2)cc1)C1CC1", "note": "[AD4-1886]", "values": [{"measurement": "inhibition of epidermal growth factor binding to its receptor", "setting": "EGF binding site", "value": "inhibitor of epidermal growth factor binding to its receptor"}]}
{"smiles": "Cc1ccc2c(C)nc(Nc3nc(-c4ccccc4)cc(=O)[nH]3)nc2c1", "note": "[AD4-10381]", "values": [{"measurement": "inhibition of epidermal growth factor binding to its receptor", "setting": "EGF binding site", "value": "inhibitor of epidermal growth factor binding to its receptor"}]}
{"smiles": "CS(=O)(=O)CCNCc1ccc(-c2ccc3ncnc(Nc4ccc(OCc5cccc(F)c5)c(Cl)c4)c3c2)o1", "note": "[Tykerb, reference compound]", "values": [{"measurement": "effect of Tykerb on the test compound (DRI as a function of Fa)", "setting": "[1]", "value": "little effect on AD4-10628"}, {"measurement": "IC50", "setting": "[1]; read-out: IC50 Tykerb", "value": "0.178 µM and 0.189 µM and 0.307 µM"}]}
{"smiles": "C#Cc1cccc(Nc2ncnc3cc(OCCOC)c(OCCOC)cc23)c1", "note": "[Tarceva, reference compound]", "values": [{"measurement": "synergism with Tykerb", "setting": "[1]", "value": "did not produce synergistic effects"}]}
{"smiles": "Cc1ccc2c(C)nc(Nc3nc(-c4ccccc4C)cc(=O)[nH]3)nc2c1", "note": "[AD4-11511]", "values": [{"measurement": "shift in Tykerb's dose-response curve", "setting": "EGFR [2]", "value": "leftward shift (i.e., greater potency)"}, {"measurement": "CI @ ED90", "setting": "[1]; combination with Iressa", "value": 0.93}, {"measurement": "CI @ ED90", "setting": "[1]; combination with Tykerb", "value": 0.87}, {"measurement": "DRI @ ED97", "setting": "[1]; [5]", "value": 96}, {"measurement": "DRI @ ED97", "setting": "[1]; [6]", "value": 84}, {"measurement": "DRI (effect of the test compound on Tykerb / Iressa)", "setting": "[1]; result in words", "value": "very high DRI values; also recorded: fairly high DRI"}]}
{"smiles": "Cc1ccc2nc(Nc3nc(=O)cc(-c4ccccc4)[nH]3)nc(C)c2c1", "note": "[compound 11601]", "values": [{"measurement": "ICW Avg", "setting": "EGFR [3]; ICW assay, average of runs 1 and 2", "value": 56.08}, {"measurement": "ICW 1", "setting": "EGFR [3]; ICW assay, run 1", "value": 58.11}, {"measurement": "ICW 2", "setting": "EGFR [3]; ICW assay, run 2", "value": 54.06}, {"measurement": "IC50", "setting": "[4]; A-431, A431 cells, first value of cell, read-out: MTT Assay IC50(A431/MDBK): A431", "value": 1.29, "unit": "µM"}, {"measurement": "IC50", "setting": "[4]; A-431, A431 cells, normalized, read-out: MTT Assay IC50 (normalized): A431", "value": 0.738, "unit": "µM"}, {"measurement": "IC50", "setting": "[4]; A-431, follow-up MTT, A431 cells, first value, read-out: MTT Follow-up: A431", "value": 3.67, "unit": "µM"}, {"measurement": "MTT Follow-up: ratio in parentheses", "setting": "[4]; follow-up MTT, ratio MDBK/A431", "value": 13.23}, {"measurement": "IC50", "setting": "MDBK line; MDBK cells, normalized, read-out: MTT Assay IC50 (normalized): MDBK", "value": 2.61, "unit": "µM"}, {"measurement": "IC50", "setting": "MDBK line; MDBK cells, second value of cell, read-out: MTT Assay IC50(A431/MDBK): MDBK", "value": 2.62, "unit": "µM"}, {"measurement": "IC50", "setting": "MDBK line; follow-up MTT, MDBK cells, second value, read-out: MTT Follow-up: MDBK", "value": 48.6, "unit": "µM"}]}
{"smiles": "Cc1ccc(NS(=O)(=O)c2ccc(NC(=S)NC(=O)C(C)C)cc2)cc1C", "note": "[AD4-12003]", "values": [{"measurement": "ICW Screen (ICW Inhibition)", "setting": "EGFR [3]", "value": 32.007}, {"measurement": "IC50", "setting": "[4]; A-431, first value of 'a/b (c)', taken as A431 cells, read-out: MTT Screen, first value of cell", "value": 11.5, "unit": "µM"}, {"measurement": "IC50", "setting": "MDBK line; second value of 'a/b (c)', taken as MDBK cells, read-out: MTT Screen, second value of cell", "value": 12.8, "unit": "µM"}]}
{"smiles": "CC(C)c1ccc2oc(=O)cc(CN3CCN(Cc4ccc5c(c4)OCO5)CC3)c2c1", "note": "[AD4-10192]", "values": [{"measurement": "ICW Screen", "setting": "EGFR [3]; Table 11, % Inhibition of EGF dependent EGFR phosphorylation in A431 cells, compound 125 μM in assay", "value": 16.772}, {"measurement": "IC50", "setting": "[4]; A-431, 72 h, Table 11, first of x/y(ratio): A431, unit not printed (doses in μM), read-out: MTT Screen (first value)", "value": 16.5, "unit": "µM"}, {"measurement": "IC50", "setting": "MDBK line; Table 11, second of x/y(ratio): MDBK, unit not printed (doses in μM), read-out: MTT Screen (second value)", "value": 43.3, "unit": "µM"}]}
{"smiles": "O=S(=O)(Nc1ccccc1)c1ccc(NC(=S)Nc2cccc(Cl)c2)cc1", "note": "[AD4-12842]", "values": [{"measurement": "ICW assay", "setting": "EGFR [3]; [7]", "value": 80.8965}, {"measurement": "IC50", "setting": "[4]; [8]", "value": 6.72, "unit": "µM"}, {"measurement": "IC50", "setting": "MDBK line; [9]", "value": 5.55, "unit": "µM"}]}
{"smiles": "CCC(C)c1ccc(NC(=S)Nc2ccc(S(=O)(=O)Nc3ccccc3)cc2)cc1", "note": "(stereo not shown) [AD4-12798]", "values": [{"measurement": "ICW assay", "setting": "EGFR [3]; [7]", "value": 49.531}, {"measurement": "IC50", "setting": "[4]; [8]", "value": 4.74, "unit": "µM"}, {"measurement": "IC50", "setting": "MDBK line; [9]", "value": 5.69, "unit": "µM"}]}
